We go through 2 compounds from article PMC6480586, “Intestinal Permeability Study of Clinically Relevant Formulations of Silibinin in Caco-2 Cell Monolayers” (International Journal of Molecular Sciences, 2019).

SMILES strings stand for the structures.

A short description of data set [1]: Caco-2 cell monolayer transport (permeability) study. It is filed as in vitro ADME. To be noted: human, formulations at 200 µg/mL in HBSS/0.6% DMSO, pH 7.4, 37 °C, up to 120 min, n = 6; for Papp A→B at 120 min, 200 µg/mL: apical to basolateral. The method, then: Caco-2 cells were seeded at a density of 1 × 10^5 onto Transwell 6-well inserts with a polyethylene terephthalate membrane (0.4 µm pore size; BD Falcon) and were maintained at 37 °C under 90% humidity and 5% CO2. The medium was replaced every two to three days for both the AP and BL chambers. Cell monolayers were used 19–21 days after seeding, once confluence and differentiation were achieved. The integrity of each cell monolayer was assessed by measuring the TEER before and after the experiments with an epithelial voltammeter (Millicell-ERS). Permeability studies were performed by adding the silibinin formulations at 200 µg/mL in HBSS/0.6% DMSO (stocks were prepared at 30 mg/mL in 100% DMSO) and, in parallel, standard silibinin at different concentrations (10, 20, 50, 100, 150, 200, and 300 µmol/L).
The transport experiment was initiated by removing the culture medium from the AP and BL chambers. The Caco-2 monolayers were washed twice with pre-warmed HBSS (pH 7.4) and incubated with the same solution at 37 °C for 30 min. […]
Transport studies were performed from apical-to-basolateral (AP–BL) and basolateral-to-apical (BL–AP) chambers. The apparent permeability (Papp) values for each compound were calculated according to the following equation: Papp=dQ/dt·1/A·C0·60 where Papp is the apparent permeability (cm/s), dQ/dt is the steady-state flux, A is the diffusion area of the monolayers (cm^2), C0 is the initial concentration of the drug in the donor compartment (µM), and 60 is a conversion factor [49].
The efflux ratio was calculated to determine the absorption mechanism such as the ratio of Papp (BL–AP) […] Papp (AP–BL).
Analyses were performed using an Agilent LC 1100 series HPLC system (Agilent Technologies, Inc., Palo Alto, CA) controlled by Chemstation software, equipped with a pump, autosampler, column oven, and UV–VIS diode array detector (wavelength selected at 280 nm to detect silibinin). […] A calibration graph for the quantitative evaluation of silibinin was performed using a six-point regression curve (r^2 > 0.999).

The conditions of data set [2]: cited from earlier work.

As usually defined, the Papp A→B is the apparent permeability from the apical to the basolateral side of a cell layer. Higher therefore signals fast passage. What is called Papp B→A is how fast a substance crosses the layer from the basolateral side.

With `COCCc1ccc(OCC(O)CNC(C)C)cc1` (centres unmarked) [metroprolol, metoprolol], in data set [1], the Papp A→B at 120 min, 200 µg/mL was determined as 60 ×10⁻⁶ cm/s.
In data set [1], `COc1cc(C2Oc3cc([C@H]4Oc5cc(O)cc(O)c5C(=O)[C@@H]4O)ccc3OC2CO)ccc1O` (some centres unmarked) [silibinin] yielded a Papp A→B at 120 min, 200 µg/mL of 3.2 ×10⁻⁶ cm/s. The same compound returned a Papp B→A at 120 min, 200 µg/mL in data set [1] (basolateral to apical) of 6.28 ×10⁻⁶ cm/s. The “Solubility in polar aprotic solvents” value in data set [2] (e.g., acetone, DMF, THF) is on record as “soluble”. Also, in data set [2] (e.g., chloroform and petroleum ether), the “Solubility in non-polar solvents” value is “insoluble”. In data set [2] (e.g., ethanol and methanol), the “Solubility in polar protic solvents” value is on record as “poorly soluble”. Besides, in data set [2] (water), the “Solubility in water” value is listed as “very poor solubility in water” and the Water solubility was under 40 µg/mL.
